Values joined by “and” are separate entries in the source; they are usually repeats but may differ in a detail not shown here. Identical values can stand only once.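 Where inhibition never reached the appropriate level, the endpoint shown equals the highest concentration tested. Otherwise, values were interpolated linearly from a five-concentration, 48-hour dose response in 96-well plates. GI50: concentration for 50% inhibition of growth. TGI: total growth inhibition.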
Columns and labels:
Assay in all cases: DTP human tumour cell line panel, 48 h
NCI/ADR-RES ovarian = test system: NCI/ADR-RES ovarian
SR leukemia = test system: SR leukemia
SF-539 CNS = test system: SF-539 CNS
NCI-H522 lung = test system: NCI-H522 lung
K-562 leukemia = test system: K-562 leukemia
HT29 colon = test system: HT29 colon
A498 renal = test system: A498 renal
OVCAR-4 ovarian = test system: OVCAR-4 ovarian
SF-268 CNS = test system: SF-268 CNS
SK-MEL-5 melanoma = test system: SK-MEL-5 melanoma

| SMILES | GI50 (NCI/ADR-RES ovarian) | TGI (NCI/ADR-RES ovarian) [µM] | GI50 (SR leukemia) | TGI (SR leukemia) | GI50 (SF-539 CNS) | TGI (SF-539 CNS) | GI50 (NCI-H522 lung) | TGI (NCI-H522 lung) | GI50 (K-562 leukemia) | TGI (K-562 leukemia) | GI50 (HT29 colon) | TGI (HT29 colon) | GI50 (A498 renal) | TGI (A498 renal) | GI50 (OVCAR-4 ovarian) | TGI (OVCAR-4 ovarian) | GI50 (SF-268 CNS) | TGI (SF-268 CNS) | GI50 (SK-MEL-5 melanoma) | TGI (SK-MEL-5 melanoma) |
| --- | --- | --- | --- | --- | --- | --- | --- | --- | --- | --- | --- | --- | --- | --- | --- | --- | --- | --- | --- | --- |
| O=[N+]([O-])c1ccc(Oc2cccc(C(F)(F)F)c2)c([N+](=O)[O-])c1 | 3.04 µM | 12.1 | 0.286 µM | 1.82 µM | 3.05 µM | 11.5 µM | 2.11 µM | 5.7 µM | 0.303 µM | 9.59 µM | 4.68 µM | 16.2 µM | 12.7 µM | 25.3 µM | 3 µM | 19.9 µM | 3.17 µM | 12.2 µM | 2.53 µM | 7.72 µM |
| NS(=O)(=O)c1cccc(-c2cc3ccncc3cc2OCc2ccccc2)c1 | 11.2 µM | > 25 | 11.6 µM | > 25 µM | 8.62 µM | > 25 µM | 13.5 µM | > 25 µM | 6.61 µM | > 25 µM | 6.05 µM | 16.8 µM | 2.17 µM | 13 µM | 11.5 µM | > 25 µM | 14.5 µM | > 25 µM | 4.83 µM | > 15.8 µM |
| Cc1cc(Br)c2nsnc2c1[N+](=O)[O-] | 4.54 µM | 20.7 | 0.706 µM | 3.23 µM | 3.1 µM | 11.2 µM | 0.176 µM | 0.381 µM | 0.968 µM | – | 2.04 µM | 4.31 µM | 5.06 µM | 15 µM | 4.73 µM | 17.3 µM | 2 µM | 5.16 µM | 3.88 µM | 13.8 µM |
| Nc1cccc2c1CN(C1CCC(=O)NC1=O)C2=O (configuration not stated) | > 100 µM | > 100 | > 100 µM | > 100 µM | > 100 µM | > 100 µM | > 100 µM | > 100 µM | > 100 µM | > 100 µM | > 100 µM | > 100 µM | > 100 µM | > 100 µM | > 100 µM | > 100 µM | > 100 µM | > 100 µM | > 100 µM | > 100 µM |
| O=C1c2ccccc2C(=O)c2c(NCCNCCO)ccc(NCCNCCO)c21 | 42.8 µM and 99.2 µM and > 100 µM | > 100 | 1.49 µM and 0.492 µM and 0.267 µM | 13.2 µM and 36.8 µM | 0.864 µM and 1.04 µM and 0.947 µM | 3.42 µM and 6.7 µM and 4.07 µM | 0.482 µM and 0.452 µM and 0.267 µM | 5.48 µM and 2.22 µM and 1.32 µM | 2.47 µM and 2.08 µM and 2.38 µM | > 32.1 µM and 33.3 µM and 11.4 µM | 1.32 µM and 2.3 µM and 1.64 µM | 7.42 µM and 12.1 µM and 5.1 µM | 0.193 µM and 1.37 µM and 0.565 µM | 1.11 µM and 7 µM and 3.61 µM | 0.896 µM and 1.13 µM and 0.986 µM | 4.87 µM and 4.02 µM and 4.54 µM | 0.276 µM and 0.257 µM and 0.36 µM | 2.61 µM and 3.34 µM and 3.76 µM | 1.41 µM and 1.13 µM and 1.09 µM | 3.34 µM and 2.87 µM and 2.86 µM |
| CC(=O)Nc1c(I)c(C(=O)O)c(I)c(N(C)C(C)=O)c1I | > 100 µM | > 100 | > 100 µM | > 100 µM | > 100 µM | > 100 µM | > 100 µM | > 100 µM | > 100 µM | > 100 µM | > 100 µM | > 100 µM | > 100 µM | > 100 µM | > 100 µM | > 100 µM | > 100 µM | > 100 µM | > 100 µM | > 100 µM |
| COc1ccc(Oc2nc(Nc3ccc(N4CCOCC4)cc3)ncc2NC(=O)Nc2cc(OC)cc(OC)c2)cc1 | > 33.3 µM | > 33.3 | 6.76 µM | > 33.3 µM | 1.06 µM | 4.69 µM | 3.94 µM | 21.7 µM | 4.66 µM | > 33.3 µM | 1.42 µM | 6.69 µM | 4.75 µM | 15 µM | 2.91 µM | 10.9 µM | 2.64 µM | > 33.3 µM | 1.11 µM | 3.79 µM |
| CS(=O)/C(C#N)=C\C=C\c1cccc(Cl)c1 (configuration not stated) | 2.66 µM | 37.7 | 0.636 µM | > 100 µM | 1.79 µM | 7.5 µM | 1.96 µM | 5.65 µM | 2.51 µM | > 100 µM | 3.26 µM | 13.7 µM | 12.4 µM | 25 µM | 3.63 µM | 21.1 µM | 2.46 µM | 14.5 µM | 1.87 µM | 3.96 µM |
| Cc1ccc(-c2c3c(N)nc(-c4ccncc4)nc3nc3c2c(C)nn3-c2ccccc2)cc1 | 7.5 µM | > 37.5 | 7.09 µM | 23.8 µM | 2.26 µM | 7.57 µM | > 37.5 µM | > 37.5 µM | 5 µM | > 37.5 µM | 11.5 µM | > 37.5 µM | 5.81 µM | > 37.5 µM | 7.44 µM | 33.3 µM | 8.27 µM | > 37.5 µM | 10.2 µM | > 37.5 µM |
| O=S(=O)(CC(O)C(Cl)(Cl)Cl)NNc1ccccc1 (configuration not stated) | – | > 100 | – | > 100 µM | – | > 100 µM | – | > 100 µM | – | > 100 µM | – | > 100 µM | – | > 100 µM | – | > 100 µM | – | > 100 µM | – | > 100 µM |
| c1cc2ccc3cc2cc1CNCCOCCNCc1ccc2ccc(cc2c1)CNCCOCCNC3 | > 100 µM | > 100 | > 100 µM | > 100 µM | > 100 µM | > 100 µM | > 100 µM | > 100 µM | > 100 µM | > 100 µM | > 100 µM | > 100 µM | > 100 µM | > 100 µM | > 100 µM | > 100 µM | > 100 µM | > 100 µM | > 100 µM | > 100 µM |
| COc1cc2c(cc1OCc1ccccc1)N=C[C@@H]1C[C@@H](F)CN1C2=O | 0.265 µM | 1.09 | 0.29 µM | 1.46 µM | 1.52 µM | 4.68 µM | – | 0.187 µM | 0.5 µM | > 100 µM | 0.322 µM | > 42.8 µM | 1.5 µM | 3.48 µM | 2.31 µM | 27.4 µM | 0.184 µM | 1 µM | 0.156 µM | 0.356 µM |
| O=C(NCCSSCCNC(=O)/C(Cc1ccc(O)c(Br)c1)=N/O)/C(Cc1ccc(O)c(Br)c1)=N/O | – | 7.97 | – | 7.08 µM | – | 8.84 µM | – | 4.26 µM | – | > 50 µM | – | > 21.4 µM | – | 14.7 µM | – | 18.3 µM | – | 9.75 µM | – | 2.33 µM |
| [CH3][Sn]([CH3])([CH3])[O]C(=O)C(O)c1ccccc1 (configuration not stated) | 6.39 µM | 79.5 | 20.7 µM | > 100 µM | 5.9 µM | 29.2 µM | 2.6 µM | 13.1 µM | 5.27 µM | > 100 µM | 3.45 µM | 31.6 µM | 13.8 µM | 63.9 µM | 7.51 µM | > 100 µM | 6.2 µM | > 82.7 µM | 1.83 µM | 3.35 µM |
| Cc1ccc(-n2nnc3c(sc4ccccc43)c2=O)cc1 | 9.35 µM | > 100 | > 100 µM | > 100 µM | 5.23 µM | 30.6 µM | 63.5 µM | > 100 µM | > 100 µM | > 100 µM | 3.59 µM | > 100 µM | 30.9 µM | > 100 µM | 2.02 µM | 4.82 µM | 4.62 µM | 71 µM | 28.1 µM | > 100 µM |
| Cc1ccn2c(-c3csc(Nc4cccc(O)c4)n3)c(C)nc2c1 | 0.957 µM | > 45.1 | 0.2 µM | – | 0.498 µM | 3.75 µM | 0.32 µM | 3.22 µM | 0.196 µM | > 38.2 µM | 4.13 µM | 18 µM | 0.926 µM | 32.1 µM | 2.43 µM | 53.2 µM | 0.785 µM | 42.6 µM | 0.478 µM | 11.1 µM |
| COc1ccc(C2=NNC(c3cc(Cc4ccc(O)c(C5CC(c6ccc(OC)cc6)=NN5)c4)ccc3O)C2)cc1 (configuration not stated) | 7.39 µM | > 100 | 16.4 µM | > 100 µM | 22.4 µM | > 100 µM | 3.64 µM | 23.4 µM | 7.74 µM | > 100 µM | 32.2 µM | > 100 µM | 71.9 µM | > 100 µM | 5.36 µM | > 100 µM | 17.9 µM | > 100 µM | 1.76 µM | 6.4 µM |
| Cc1ccc2c(n1)C(=O)C(Cl)=C(Nc1ccc(N3CCN(C)CC3)cc1)C2=O | 3.09 µM | 9.45 | 2.78 µM | 9.06 µM | 1.74 µM | 3.22 µM | 1.86 µM | 4.78 µM | 2.72 µM | 8.92 µM | 2.19 µM | 4.92 µM | 12.8 µM | 25.6 µM | 1.5 µM | 2.87 µM | 1.89 µM | 4.13 µM | 1.72 µM | 3.1 µM |
| CCc1ccc(Oc2nccc(-c3c(-c4ccc(F)cc4)ncn3C3CCNCC3)n2)cc1 | 4.69 µM | 12.9 | 7.25 µM | 18.1 µM | 4.79 µM | 9.57 µM | 4.73 µM | 8.67 µM | 4.64 µM | 10.9 µM | 3.84 µM | 8.15 µM | 3.55 µM | 9.82 µM | 5.02 µM | 13 µM | 6.76 µM | 15.4 µM | 4.22 µM | 7.71 µM |

From PubChem BioAssay (NCI)
